Source: patent US20160100579A1, “NEMATICIDAL N-(2-SUBSTITUTED 2-PHENYLETHYL)CARBOXAMIDES AND N-(2-SUBSTITUTED 2-PHENYLETHYL)-THIOCARBOXAMIDES” (priority 2013, published 2016)
Like-named read-outs stand apart in the source and are kept apart here.

Assays:
[1] = Measurement of log P values by HPLC on reversed phase columns (EEC directive 79/831 Annex V.A8; methods [a] pH 2.3, [b] pH 2.7, [c] pH 7.8); assay type: physicochemical; conditions: for chromatographic logP: reversed phase HPLC column
Meloidogyne incognita = Meloidogyne incognita - test (MELGIN); assay type: in vivo; conditions: 20 ppm; salad seedlings in sand; after 14 days; 100% = no galls found
Method: Meloidogyne incognita—test (MELGIN)
Solvent: 125.0 parts by weight of acetone
To produce a suitable preparation of active compound, 1 part by weight of active compound is mixed with the stated amount of solvent, and the concentrate is diluted with water to the desired concentration.
Vessels are filled with sand, a solution of the active ingredient, a suspension containing eggs and larvae of the southern root-knot nematode (Meloidogyne incognita) and salad seeds. The salad seeds germinate and the seedlings grow. Galls develop in the roots.
After 14 days the nematicidal activity is determined on the basis of the percentage of gall formation. 100% means that no galls were found; 0% means the number of galls found on the roots of the treated plants was equal to that in untreated control plants.

Haemonchus contortus = Haemonchus contortus - Test (HAEMCO); assay type: in vivo; conditions: after 5 days, 100% = all larvae killed
Method: Haemonchus contortus—Test (HAEMCO)
Solvent: dimethyl sulfoxide
To produce a suitable preparation of active compound, 10 mg of active compound are dissolved in 0.5 ml solvent, and the concentrate is diluted with “Ringer's solution” to the desired concentration.
Approximately 40 larvae of the red stomach worm (Haemonchus contortus) are transferred into a test tube containing compound solution.
After 5 days percentage of larval mortality is recorded. 100% efficacy means all larvae are killed, 0% efficacy means no larvae are killed.

[2] = method [b]: LC-MS at pH 2.7, 0.1% formic acid in water / acetonitrile
[3] = method [c]: LC-MS at pH 7.8, 0.001 molar ammonium hydrogen carbonate in water / acetonitrile
[4] = method [b]: LC-MS, pH 2.7, 0.1% formic acid in water / acetonitrile

log P [1, 2] | log P [1, 3] | logP [1, 4] | SMILES | nematicidal activity (percentage of gall formation) (Meloidogyne incognita) [%] | also measured
4.50[b] | 4.44^[c]; |  | CCOC(c1ccc(Cl)cc1Cl)C(C)NC(=O)c1ccccc1C(F)(F)F (stereo not shown) [Compound 194] | 90 | 
 |  |  | COC(c1ccc(Cl)cc1Cl)C1(NC(=O)c2nccnc2Cl)CC1 (stereo not shown) [Compound 210, 3-chloro-N-{1-[(2,4-dichlorophenyl)(methoxy)methyl]cyclopropyl}pyrazine-2-carboxamide] | 100 | chromatographic logP ([1]; acid HPLC method, reversed phase, read-out: Log P acid): 3.24; chromatographic logP ([1]; method [b]: LC-MS at pH 2.7, 0.1% formic acid in water / acetonitrile, read-out: log P): 3.24; chromatographic logP ([1]; method [c]: LC-MS at pH 7.8, 0.001 molar ammonium hydrogen carbonate in water / acetonitrile, read-out: log P): 3.19
3.42^[b] | 3.39^[c]; |  | COC(c1ccccc1Cl)C(C)NC(=O)c1ccccc1C(F)F (stereo not shown) [Compound 140] | 90 | 
 |  | 3.37^[b] | COC(c1ccc(Cl)cc1Cl)C1(NC(=O)c2cccnc2C(F)(F)F)CC1 (stereo not shown) [Compound 100] | 90 | 
 |  | 3.59^[b] | CCOC(c1ccc(Cl)cc1Cl)C(C)NC(=O)c1cccnc1Cl (stereo not shown) [Compound 106] | 90 | 
 |  | 3.57^[b] | CCOC(c1ccc(Cl)cc1Cl)C(C)NC(=O)c1cccnc1C(F)F (stereo not shown) [Compound 105] | 90 | 
 |  | 3.92^[b] | CCOC(c1ccc(Cl)cc1Cl)C(C)NC(=O)c1cccnc1C(F)(F)F (stereo not shown) [Compound 108] | 100 | 
 |  |  | COC(CNC(=O)c1cn(C)nc1C(F)F)c1cc(Cl)cc(Cl)c1 (stereo not shown) [Compound 25] | 90 | 
 |  | 3.11^[b] | COC(CNC(=O)c1cccnc1C(F)(F)F)c1ccc(Cl)cc1Cl (stereo not shown) [Compound 104] | 90 | 
3.52^[b] | 3.50^[c]; |  | COC(c1ccccc1Cl)C(C)NC(=O)c1c(F)cccc1C(F)(F)F (stereo not shown) [Compound 141] | 90 | 
2.55^[b] | 2.53^[c]; |  | COC(c1ccccc1Cl)C(C)NC(=O)c1cccnc1Cl (stereo not shown) [Compound 143] | 90 | 
3.34^[b] | 3.31^[c]; |  | COC(c1ccccc1Cl)C(C)NC(=O)c1ccccc1Br (stereo not shown) [Compound 142] | 90 | 
3.74^[b] | 3.26^[c]; |  | COC(c1ccccc1Cl)C(C)NC(=O)c1ccccc1Cl (stereo not shown) [Compound 156] | 90 | 
3.11^[b] | 3.08^[c]; |  | COC(c1ccccc1Cl)C(C)NC(=O)c1c(F)cccc1F (stereo not shown) [Compound 144] | 90 | 
 |  |  | C#CCOC(CNC(=O)c1sccc1C)c1ccc(Cl)cc1 (stereo not shown) [Compound 1] |  | logP ([1]; method [a]: HPLC, pH 2.3, 0.1% phosphoric acid / acetonitrile): 3.18^[a]; activity (efficacy: larval mortality) (Haemonchus contortus; 100 ppm): 80%

SMILES | log P [1, 2] | log P [1, 3] | logP [1, 4] | nematicidal activity (percentage of gall formation) (Meloidogyne incognita) [%] | also measured
COC(c1ccc(Cl)cc1)C(C)NC(=O)c1ccccc1C (stereo not shown) [Compound 129] | 3.30^[b] | 3.20^[c]; |  |  | activity (efficacy: larval mortality) (Haemonchus contortus; 20 ppm): 80%
COC(c1ccc(Cl)cc1Cl)C1(NC(=O)c2cccnc2Cl)CC1 (stereo not shown) [Compound 98] |  |  | 3.00^[b] |  | activity (efficacy: larval mortality) (Haemonchus contortus; 20 ppm): 80%
COC(c1ccc(Cl)cc1Cl)C(C)NC(=O)c1ccnn1C(F)F (stereo not shown) [Compound 123] | 3.09^[b] |  |  |  | activity (efficacy: larval mortality) (Haemonchus contortus; 20 ppm): 100%
COC(CNC(=O)c1nccnc1C(F)(F)F)c1cc(Cl)cc(Cl)c1 (stereo not shown) [Compound 120] | 3.42^[b] |  |  |  | activity (efficacy: larval mortality) (Haemonchus contortus; 20 ppm): 80%
COC(c1ccc(Cl)cc1)C(C)NC(=O)c1sccc1Cl (stereo not shown) [Compound 66] |  |  | 3.83^[b] |  | logP ([1]; method [c]: LC-MS, pH 7.8, 0.001 molar ammonium hydrogen carbonate / acetonitrile): 3.83^[c];; activity (efficacy: larval mortality) (Haemonchus contortus; 20 ppm): 90%
COC(c1ccc(Cl)cc1)C(C)NC(=O)c1ccsc1Br (stereo not shown) [Compound 63] |  |  | 3.68^[b] |  | activity (efficacy: larval mortality) (Haemonchus contortus; 100 ppm): 100%
COC(c1ccc(Cl)cc1)C(C)NC(=O)c1ccccc1Br (stereo not shown) [Compound 131] | 3.29^[b] | 3.30^[c]; |  |  | activity (efficacy: larval mortality) (Haemonchus contortus; 20 ppm): 90%
